Values of other authors in patent publication US20060013877A1 (Nanohybrid Co., Ltd., priority 2002, published 2006).

- water solubility: about 1 mg/ml
SMILES: CCC(C)n1ncn(-c2ccc(N3CCN(c4ccc(OC[C@H]5CO[C@](Cn6cncn6)(c6ccc(Cl)cc6Cl)O5)cc4)CC3)cc2)c1=O (mixture of isomers) [itraconazole, (±)-cis-4-[4-[4-[4-[[2-(2,4-dichlorophenyl)-2-(1H-1,2,4-triazole-1-ylmethyl)-1,3-dioxoran-4-yl]methoxy]phenyl]-1-piperazinyl]phenyl]-2,4-dihydro-2-(1-methylpropyl)-3H-1,2,4-triazole-3-one]
